Test results taken from patent US12077503B2, “Substituted cyclic amides and their use as herbicides” (FMC CORPORATION, priority 2015, dated 2024).
Like-named read-outs stand apart in the source and are kept apart here.

How the values were obtained:
Assay in all cases: Test A postemergence
Type in all cases: in vivo
[1] = tested on: pigweed (Amaranthus retroflexus); settings: Amaranthus retroflexus, post-emergence, 240 h, postemergence, approx. 10 d; for pest or weed control at 125 g/ha: 125 g ai/ha, visual injury on 0 to 100 scale (0 no effect, 100 complete control), read-out: Pigweed plant response rating; for pest or weed control at 500 g/ha: 500 g ai/ha, visual injury, 0 to 100 scale (0 no effect, 100 complete control), read-out: Plant response rating, Pigweed
In short: (§1)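 Visual injury, scored on a 0–100 scale relative to untreated controls, was recorded about 10 d after application. Treatments were a preemergence soil spray over planted seeds or a postemergence spray on plants at the one- to two-leaf stage, 2 to 10 cm tall, all in loam soil–sand blend in the greenhouse.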

[2] = tested on: blackgrass (Alopecurus myosuroides); settings: Alopecurus myosuroides, post-emergence, 240 h; for pest or weed control at 125 g/ha: 125 g ai/ha; for pest or weed control at 500 g/ha: 500 g ai/ha, visual injury, 0 to 100 scale (0 no effect, 100 complete control)
In short: as §1

[3] = tested on: Galium (catchweed bedstraw, Galium aparine); settings: Galium, post-emergence, 240 h, postemergence, approx. 10 d; for pest or weed control at 125 g/ha: 125 g ai/ha, visual injury on 0 to 100 scale (0 no effect, 100 complete control), read-out: Galium plant response rating; for pest or weed control at 500 g/ha: 500 g ai/ha, visual injury, 0 to 100 scale (0 no effect, 100 complete control), read-out: Plant response rating, Galium
In short: as §1

[4] = tested on: ryegrass, Italian (Italian ryegrass, Lolium multiflorum); settings: Lolium multiflorum, post-emergence, 240 h, postemergence, approx. 10 d; for pest or weed control at 125 g/ha: 125 g ai/ha, visual injury on 0 to 100 scale (0 no effect, 100 complete control), read-out: Ryegrass, Italian plant response rating; for pest or weed control at 500 g/ha: 500 g ai/ha, visual injury, 0 to 100 scale (0 no effect, 100 complete control), read-out: Plant response rating, Ryegrass, Italian
In short: as §1

[5] = tested on: wheat (Triticum aestivum); settings: Triticum aestivum, post-emergence, 240 h, postemergence, approx. 10 d; for plant injury at 125 g/ha: 125 g ai/ha, visual injury on 0 to 100 scale (0 no effect, 100 complete control), read-out: Wheat plant response rating; for plant injury at 500 g/ha: 500 g ai/ha, visual injury, 0 to 100 scale (0 no effect, 100 complete control), read-out: Plant response rating, Wheat
In short: as §1

corn (Zea mays) = settings: Zea mays, post-emergence, 240 h; for Corn plant response rating (crop injury, 0 = no effect, 100 = complete kill) at 125 g/ha / plant injury at 125 g/ha: 125 g ai/ha; for Corn plant response rating (crop injury, 0 = no effect, 100 = complete kill) at 125 g/ha: Postemergence, visual injury after approximately 10 d, 0 to 100 scale where 0 is no effect and 100 is complete control; for Corn plant response rating (crop injury, 0 = no effect, 100 = complete kill) at 500 g/ha: 500 g ai/ha, visual injury, 0 to 100 scale (0 no effect, 100 complete control); for Corn plant response rating (crop injury, 0 = no effect, 100 = complete kill) at 500 g/ha / plant injury at 125 g/ha: postemergence, approx. 10 d; for plant injury at 125 g/ha: visual injury on 0 to 100 scale (0 no effect, 100 complete control), read-out: Corn plant response rating
In short: as §1

[6] = Postemergence, visual injury after approximately 10 d, 0 to 100 scale where 0 is no effect and 100 is complete control, read-out: Plant response rating, Blackgrass
[7] = postemergence, approx. 10 d, read-out: Plant response rating, Blackgrass
[8] = postemergence, visual injury on 0 to 100 scale (0 no effect, 100 complete control), approx. 10 d, read-out: Blackgrass plant response rating

Compound | pest or weed control at 125 g/ha [1] [%] | pest or weed control at 500 g/ha [1] [%] | pest or weed control at 125 g/ha [2, 6] [%] | pest or weed control at 500 g/ha [2, 7] [%] | pest or weed control at 125 g/ha [3] [%] | pest or weed control at 500 g/ha [3] [%] | pest or weed control at 125 g/ha [4] [%] | pest or weed control at 500 g/ha [4] [%] | plant injury at 125 g/ha [5] [%] | plant injury at 500 g/ha [5] [%] | Corn plant response rating (crop injury, 0 = no effect, 100 = complete kill) at 125 g/ha (corn (Zea mays)) [%] | Corn plant response rating (crop injury, 0 = no effect, 100 = complete kill) at 500 g/ha (corn (Zea mays)) [%] | pest or weed control at 125 g/ha [2, 8] [%] | plant injury at 125 g/ha (corn (Zea mays)) [%]
O=C1NC[C@H](c2ccc3c(c2)OCO3)[C@H]1C(=O)Nc1ccc(F)c(F)c1F [Compound 1027] | 0 | 0 | 0 | 40 | 50 | 70 | 0 | 30 | 0 | 0 | 0 | 0 |  | 
CN1CC[C@H](c2ccccc2)[C@@H](C(=O)Nc2ccccc2F)C1=O [Compound 1032] | 0 | 0 | 0 | 0 | 0 | 0 | 0 | 0 | 0 | 0 | 0 | 0 |  | 
Cc1ccc([C@H]2CNC(=O)[C@@H]2C(=O)Nc2cccc(F)c2F)cc1C [Compound 1034] | 0 | 0 | 20 | 30 | 40 | 60 | 0 | 60 | 0 | 50 | 10 | 50 |  | 
Cc1ccc([C@H]2CN(C)C(=O)[C@@H]2C(=O)Nc2ccccc2F)cc1C [Compound 1038] | 0 |  | 30 | 50 | 50 | 70 | 20 |  | 20 |  | 60 | 80 |  | 
Cc1cc([C@H]2CNC(=O)[C@@H]2C(=O)Nc2ccccc2F)ccc1C(F)(F)F [Compound 1042] | 20 |  |  | 70 | 30 | 50 | 30 |  | 0 |  |  | 70 | 40 | 60
O=C1NC[C@H](c2ccc3c(c2)CCC3)[C@H]1C(=O)Nc1ccccc1F [Compound 1045] | 0 |  |  | 60 | 40 | 50 | 50 |  | 20 |  |  | 40 | 40 | 20
O=C1NC[C@H](c2ccc3c(c2)CCC3)[C@H]1C(=O)Nc1cccc(F)c1F [Compound 1046] | 0 |  |  | 50 | 50 | 50 | 40 |  | 20 |  |  | 60 | 30 | 20
